Experimental data taken from PubChem BioAssay (NCI).
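Protocol summary: plate cells (96-well), add compound at 5 concentrations, incubate 48 h, interpolate endpoints linearly. The concentration for full growth arrest is given as TGI.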

Legend:
Assay in all cases: NCI tumour cell line growth inhibition, 48 h
[1] = test system: HOP-92 NSCLC
[2] = test system: CAKI-1 renal
[3] = test system: HL-60(TB) leukemia
[4] = test system: OVCAR-4 ovarian
[5] = test system: OVCAR-5 ovarian
[6] = test system: SR leukemia
[7] = test system: LOX IMVI melanoma
[8] = test system: MDA-MB-435
[9] = test system: COLO 205 colon
[10] = test system: KM12 colon
[11] = test system: SN12C renal
[12] = test system: SK-MEL-2 melanoma
[13] = test system: SNB-19 CNS

Compound	TGI [1]	TGI [2]	TGI [3]	TGI [4]	TGI [5]	TGI [6]	TGI [7]	TGI [8]	TGI [9]	TGI [10]	TGI [11]	TGI [12]	TGI [13]
CCN(CC)CCN1CCN=c2c3cc(OC)ccc3n3cnc4ccc1c2c43	4.42 µM	2.23 µM	1.2 µM	1.26 µM	5.77 µM	1.64 µM	1.07 µM	1.92 µM	2.6 µM	2.45 µM	3.38 µM	2.18 µM	3.04 µM
CCOP(=O)(CCC(O)CNc1nc(N)nc(Cl)c1N=Nc1ccc(Cl)cc1)OCC (stereo not drawn)	3.8 µM	14.5 µM	33.3 µM	24.3 µM	34.1 µM	50.3 µM	22.9 µM	29.9 µM	27.4 µM	37.5 µM	42.7 µM	24.3 µM	–
Cc1ccc2nc(CN3CCCCC3)cc(=O)n2c1	> 100 µM	> 100 µM	> 100 µM	> 100 µM	> 100 µM	> 100 µM	> 100 µM	> 100 µM	> 100 µM	> 100 µM	> 100 µM	> 100 µM	> 100 µM
CCOC(=O)c1c(-c2ccc(Cl)cc2)c(C#N)c(=S)n(C2OC(CO)C(O)C(O)C2O)c1-c1ccccc1 (stereo not drawn)	42.6 µM	82.6 µM	–	> 100 µM	40.8 µM	> 100 µM	33.5 µM	48.6 µM	80.9 µM	> 100 µM	> 100 µM	50.2 µM	52.4 µM
COC(=O)C(Cc1ccccc1)C(=O)NC(CNC(=O)OCc1ccccc1)C(=O)OCc1ccccc1 (stereo not drawn)	> 72.3 µM	> 87.2 µM	> 67.9 µM	> 100 µM	> 100 µM	> 69.2 µM	36 µM	50 µM	37.7 µM	> 100 µM	> 100 µM	97.4 µM	> 100 µM
CN=C1Nc2ccccc2C(=S)N2CSC[C@@H]12	> 100 µM	> 100 µM	–	> 100 µM	> 100 µM	> 100 µM	–	> 100 µM	> 100 µM	> 100 µM	> 100 µM	> 100 µM	> 100 µM
CC(C)[Si](OCC/C=C/C1CCC(=O)C1C(O)C1CCCCC1)(C(C)C)C(C)C (stereo not drawn)	27.7 µM	28.5 µM	–	38.6 µM	33.4 µM	14.8 µM	32.7 µM	34.5 µM	35.5 µM	30 µM	34.4 µM	26.9 µM	32.6 µM
O=c1[nH]c2nccn2c(Cl)c1Br	78.7 µM	40.7 µM	33.5 µM	34.9 µM	49.1 µM	48.7 µM	34.4 µM	42 µM	34.4 µM	> 100 µM	67.5 µM	16.3 µM	70.5 µM
CC/C(=C/OC)P1(=O)OC(C)(C)CN1C(C)(C)C (stereo not drawn)	–	> 100 µM	–	> 100 µM	> 100 µM	> 100 µM	> 100 µM	> 100 µM	> 100 µM	> 100 µM	–	> 100 µM	> 100 µM
CNC(=O)C(C)NC(=O)C(Cc1ccccc1)NC(=O)OC(C)(C)C (stereo not drawn)	> 100 µM	> 100 µM	> 100 µM	–	> 100 µM	> 100 µM	> 100 µM	> 100 µM	> 100 µM	> 100 µM	> 100 µM	> 100 µM	> 100 µM
COc1cc(/C=C2\CCC(C)c3c2nc(N)c(C#N)c3-c2cc(OC)c(OC)c(OC)c2)cc(OC)c1OC (stereo not drawn)	> 100 µM	> 100 µM	> 100 µM	78.1 µM	> 100 µM	> 100 µM	> 100 µM	> 100 µM	–	> 100 µM	> 100 µM	> 100 µM	> 100 µM
CCC1=NC(N/N=C/c2ccccc2O)=N/C1=C\c1ccccc1O	> 84 µM	> 100 µM	10.6 µM	> 31.3 µM	> 100 µM	> 100 µM	> 42.9 µM	> 81.2 µM	> 74.8 µM	> 66.1 µM	> 83 µM	66.2 µM	> 100 µM
COc1ccccc1NC(=S)Nc1cccc(C)n1	–	> 100 µM	> 100 µM	> 100 µM	> 100 µM	> 100 µM	> 100 µM	> 100 µM	> 100 µM	> 100 µM	> 100 µM	> 100 µM	> 100 µM
COCC1OCCN1C (stereo not drawn)	> 100 µM	> 100 µM	–	> 100 µM	> 100 µM	> 100 µM	> 100 µM	> 100 µM	> 100 µM	> 100 µM	–	> 100 µM	> 100 µM
c1ccc2c(OCC3CO3)ccc(OCC3CO3)c2c1 (stereo not drawn)	18.4 µM	3.32 µM	2.4 µM	21 µM	23.3 µM	11.1 µM	2.08 µM	7.74 µM	23 µM	16.1 µM	11.5 µM	–	21 µM
COc1ccc2c(c1)-c1c(c3ccccc3n1CCN1CCCCC1)CC2	54.4 µM	> 75.2 µM	20.4 µM	> 100 µM	> 57.2 µM	30.9 µM	33.3 µM	73.2 µM	29.9 µM	> 56.9 µM	> 83.9 µM	16.7 µM	66.4 µM
[N-]=[N+]=Nc1cc(=O)n(-c2ccccc2)c(=O)n1-c1ccccc1	> 100 µM	> 100 µM	–	> 100 µM	> 100 µM	> 100 µM	–	> 100 µM	> 100 µM	> 100 µM	> 100 µM	> 100 µM	> 100 µM
CCCOc1ccc(/C=C/C2=[N+](CCO)CCO2)cc1	> 100 µM	> 100 µM	> 100 µM	> 100 µM	> 100 µM	> 100 µM	–	> 100 µM	> 100 µM	> 100 µM	> 100 µM	> 100 µM	> 100 µM

Compound	TGI [1]	TGI [2]	TGI [3]	TGI [4]	TGI [5]	TGI [6]	TGI [7]	TGI [8]	TGI [9]	TGI [10]	TGI [11]	TGI [12]	TGI [13]
COc1c(C(CC(C)C)OC(C)=O)ccc2c1C(=O)OCc1cc(C)cc(O)c1O2 (stereo not drawn)	24.5 µM	32.2 µM	> 100 µM	27.1 µM	28.4 µM	> 100 µM	27.8 µM	26.6 µM	31.8 µM	35.4 µM	27.2 µM	33.4 µM	28.7 µM
Cc1nc2c(n1CCCl)C(=O)c1ccccc1C2=O	72.1 µM	–	83.8 µM	29.7 µM	36.3 µM	> 100 µM	–	28.6 µM	30.2 µM	> 100 µM	> 100 µM	–	> 100 µM
O=C(O)c1ccccc1C(=O)OCC1CCCN2CCCCC12 (stereo not drawn)	> 100 µM	> 100 µM	–	> 100 µM	> 100 µM	> 100 µM	> 100 µM	> 100 µM	> 100 µM	> 100 µM	> 100 µM	> 100 µM	> 100 µM
Cc1ccc(-c2cnc(NC3OC(COC(=O)c4ccccc4)C(OC(=O)c4ccccc4)C(OC(=O)c4ccccc4)C3OC(=O)c3ccccc3)s2)cc1 (stereo not drawn)	> 100 µM	–	–	> 100 µM	> 100 µM	> 100 µM	> 100 µM	> 100 µM	> 100 µM	–	> 100 µM	> 100 µM	> 100 µM
CCCN(CCC)C(=S)N/N=C/c1cccc(C)n1	> 100 µM	4.65 µM	0.384 µM	3.21 µM	47.2 µM	0.376 µM	15.6 µM	28.8 µM	0.0435 µM	12.4 µM	3.13 µM	26.4 µM	> 100 µM
CC(=O)NNc1nc(C)c(C(/C=C/c2ccccc2O)=N/NC(=O)c2ccncc2)s1	> 100 µM	> 100 µM	> 100 µM	> 100 µM	> 100 µM	> 100 µM	> 100 µM	> 100 µM	> 100 µM	> 100 µM	> 100 µM	> 100 µM	> 100 µM
CC1=C(C#N)C(=O)N(/N=C/c2ccc(Cl)cc2)C(=O)/C1=c1\o/c(=C2/C(=O)N(/N=C/c3ccc(Cl)cc3)C(=O)C(C#N)=C2C)c2nccnc12	> 100 µM	> 100 µM	> 100 µM	> 100 µM	> 100 µM	> 100 µM	> 100 µM	> 100 µM	> 100 µM	> 100 µM	> 100 µM	> 100 µM	> 100 µM
Cc1ccc(S(=O)(=O)Oc2coc(CO)cc2=O)cc1	39.6 µM	10.4 µM	12.5 µM	32.3 µM	31.8 µM	> 85.5 µM	14.9 µM	30.7 µM	28.6 µM	18.7 µM	25.3 µM	57.6 µM	27.8 µM
C=C1[C@H](OCC(C)C)[C@@H](OCC(C)C)[C@@H](O)C(C)(C)/C=C/[C@H](C)C(=O)[C@@]2(O)C[C@H](C)[C@H](O)[C@@H]2[C@H]1OCC(C)C	> 7.5 µM	> 7.5 µM	–	> 7.5 µM	> 7.5 µM	> 7.5 µM	> 7.5 µM	> 7.5 µM	> 7.5 µM	> 7.5 µM	> 7.5 µM	> 7.5 µM	> 7.5 µM
NC(=O)CC1(O)C=CC(=O)C=C1	> 100 µM	> 100 µM	> 100 µM	> 100 µM	> 100 µM	> 100 µM	> 100 µM	> 100 µM	> 100 µM	> 100 µM	> 100 µM	> 100 µM	> 100 µM
COC(=O)CC1CN(C(=O)OCc2ccccc2)C(C)(C)O1 (stereo not drawn)	> 100 µM	> 100 µM	> 100 µM	> 100 µM	> 100 µM	> 100 µM	> 100 µM	> 100 µM	> 100 µM	> 100 µM	> 100 µM	> 100 µM	> 100 µM
CC1=C(C(=O)OC23CC4CC(CC(C4)C2)C3)C(c2ccccc2OC(F)F)C(C(=O)OC23CC4CC(CC(C4)C2)C3)=C(C)N1 (stereo not drawn)	> 100 µM	> 100 µM	> 100 µM	> 100 µM	> 100 µM	> 100 µM	> 100 µM	> 100 µM	> 100 µM	> 100 µM	> 100 µM	> 100 µM	> 100 µM
O=c1c2cc([N+](=O)[O-])cnc2sn1-c1ccc(Oc2ccccc2)cc1	90.2 µM	–	> 100 µM	> 100 µM	> 100 µM	> 100 µM	> 100 µM	> 100 µM	> 100 µM	> 100 µM	> 100 µM	> 100 µM	> 100 µM
CC1(C)C[C@H]2C3=CC[C@@H]4[C@@]5(C)CC[C@H](O)C(C)(C)[C@@H]5CC[C@@]4(C)[C@]3(C)C[C@@H](O)[C@@]23C[C@@H]1OC3=O	> 100 µM	> 100 µM	> 100 µM	> 100 µM	> 100 µM	> 100 µM	> 100 µM	> 100 µM	> 100 µM	> 100 µM	> 100 µM	> 100 µM	> 100 µM
CC(=O)CCC(=O)CC(O)(C(F)(F)F)C(F)(F)F	26.7 µM	–	38.1 µM	37 µM	29.9 µM	32 µM	–	34.6 µM	34.4 µM	31.1 µM	36.5 µM	–	30 µM
COc1ccc(OC)c2c(=O)cc(-c3ccccc3)[nH]c12	–	–	> 100 µM	> 100 µM	> 100 µM	> 100 µM	> 100 µM	> 100 µM	> 100 µM	> 100 µM	> 100 µM	> 100 µM	> 100 µM
CN(C)Cc1cc(C(=O)/C=C/c2c(Cl)cccc2Cl)cc(CN(C)C)c1O	9.06 µM	6.74 µM	11.7 µM	24.8 µM	32.2 µM	22.6 µM	4.45 µM	21.9 µM	7.66 µM	7.2 µM	21 µM	–	31 µM
